Measured values from patent publication US5231093A, “Carbamate derivatives of 4-amino-3-isoxazolidinones, 3-amino-1-hydroxypyrrolidin-2-ones and 1-amino-1-cyclopropanecarboxylic acid analogs” (priority 1992, dated 1993).
Where a name gives a salt, the structure may show the parent alone. Read-outs that look alike come from different tables or passages of the source.

Key:
acetylcholinesterase = biological target: T1, acetylcholinesterase (Rattus norvegicus, UniProt P37136); assay: In Vitro Inhibition of Acetylcholinesterase Activity in Rat Striatum; type: biochemical
T1 construct: corpora striata dissected free, weighed and homogenized in 19 volumes; from tissue; host or cells: corpus striatum of male Wistar rats, whole homogenate in 0.05M phosphate buffer pH 7.2
T1 sequence (P37136 32-614): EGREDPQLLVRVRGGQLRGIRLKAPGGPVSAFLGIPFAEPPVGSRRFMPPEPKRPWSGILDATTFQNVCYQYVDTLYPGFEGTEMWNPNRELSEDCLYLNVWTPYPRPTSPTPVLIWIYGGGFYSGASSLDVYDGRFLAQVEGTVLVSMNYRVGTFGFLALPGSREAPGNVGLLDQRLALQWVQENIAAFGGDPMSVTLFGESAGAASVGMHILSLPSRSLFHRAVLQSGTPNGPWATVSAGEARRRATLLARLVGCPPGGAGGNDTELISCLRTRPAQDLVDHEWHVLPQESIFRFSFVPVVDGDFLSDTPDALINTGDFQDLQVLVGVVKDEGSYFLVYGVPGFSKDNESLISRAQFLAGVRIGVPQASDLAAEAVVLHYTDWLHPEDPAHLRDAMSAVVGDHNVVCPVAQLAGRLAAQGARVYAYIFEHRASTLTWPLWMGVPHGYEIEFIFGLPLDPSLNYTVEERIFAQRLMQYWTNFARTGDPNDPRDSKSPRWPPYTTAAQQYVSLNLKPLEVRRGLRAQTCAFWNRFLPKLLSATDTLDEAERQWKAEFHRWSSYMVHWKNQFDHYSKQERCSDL
Source text: Cholinesterases are found throughout the body, both in the brain and in serum. However, only brain acetylcholinesterase (AChE) distribution is correlated with central cholinergic innervation.
The method described below was used in this invention for assaying cholinesterase activity. This is a modification of the method of Ellman et al., Biochem. Pharmacol. 7, 88 (1961).
1. 0.05M Phosphate buffer, pH 7.2
(c) add (a) to (b) until pH reaches 7.2
4. […] Drugs are serially diluted (1:10) such that the final concentration (in cuvette) is 10^-4 M and screened for activity. If active, IC50 values are determined from the inhibitory activity of subsequent concentrations.
Male Wistar rats are decapitated, brains rapidly removed, corpora striata dissected free, weighed and homogenized in 19 volumes (approximately 7 mg protein/ml) of 0.05M phosphate buffer, pH 7.2 using a Potter-Elvehjem homogenizer. A 25 microliter aliquot of the homogenate is added to 1.0 milliter vehicle or various concentrations of the test drug and preincubated for 10 minutes at 37° C.
Enzyme activity is measured with the Beckman DU-50 spectrophotometer. This method can be used for IC50 determinations and for measuring kinetic constants.
Reagents are added to the blank and sample cuvettes as follows:
Blank values are determined for each run to control for non-enzymatic hydrolysis of substrate and these values are automatically subtracted by the kindata program available on kinetics soft-pac module. This program also calculates the rate of absorbance change for each cuvette.
Substrate concentration is 10 mM diluted 1:2 in assay yielding final concentration of 5 mM. DTNB concentration is 0.5 mM yielding 0.25 mM final concentration. [formula] IC50 values are calculated from log-probit analysis

[1] = system: Scopolamine Induced Memory Deficit; type: in vivo, mice
Experimental: In this assay mice are tested for their ability to remember an unpleasant stimulus for a period of 24 hours. A mouse is placed in a chamber that contains a dark compartment; a strong incandescent light drives it to the dark compartment, where an electric shock is administered through metal plates on the floor. The animal is removed from the testing apparatus and tested again, 24 hours later, for the ability to remember the electric shock.
If scopolamine, an anticholinergic agent that is known to cause memory impairment, is administered before an animal's initial exposure to the test chamber, the animal re-enters the dark compartment shortly after being placed in the test chamber 24 hours later. This effect of scopolamine is blocked by an active test compound, resulting in a greater interval before re-entry into the dark compartment.
The results for an active compound are expressed as the percent of a group of animals in which the effect of scopolamine is blocked, as manifested by an increased interval between being placed in the test chamber and re-entering the dark compartment.
Results of this assay for some of the compounds of this invention and those for tacrine (reference compound) are presented in Table 2.

Compound | IC50 (acetylcholinesterase) [nM] | % of Animals with Scopolamine Induced Memory Deficit Reversal ([1]; mice, 0.3 mg/kg of body weight, s.c, 24 hours) [%] | % of Animals with Scopolamine Induced Memory Deficit Reversal ([1]; mouse, in vivo, 0.63 mg/kg) [%]
CN1CC[C@@]2(C)c3cc(OC(=O)N[C@@H]4CCN(OCc5ccccc5)C4=O)ccc3N(C)[C@@H]12 [(3aS-cis)-1,2,3,3a,8,8a-Hexahydro-1,3a,8-trimethylpyrrolo-[2,3-b]indol-5yl [2-oxo-1-(phenylmethoxy)-3R-pyrrolidinyl]carbamate] | 67 |  | 
CN1CC[C@@]2(C)c3cc(OC(=O)N[C@@H]4CCN(O)C4=O)ccc3N(C)[C@@H]12 [(3aS-cis)-1,2,3,3a,8,8a-Hexahydro-1,3a,8-trimethylpyrrolo[2,3-b]indol-5-yl [2-oxo-1-(hydroxy)-3R-pyrrolidinyl]carbamate, citrate salt] | 2310 |  | 
CN1CC[C@@]2(C)c3cc(OC(=O)N[C@@H]4CON(Cc5ccccc5)C4=O)ccc3N(C)[C@@H]12 [(3aS-cis)-1,2,3,3a,8,8a-Hexahydro-1,3a,8-trimethypyrrolo-[2,3-b]indol-5-yl [2-(phenylmethyl)-3-oxo-4R-isoxazolidinyl]-carbamate hemihydrate] | 500 | 27 | 
Nc1c2c(nc3ccccc13)CCCC2 [Tacrine, reference compound] |  |  | 13
